Values after ≈ are worked out from the molar mass of the structure shown. Read-outs that look alike come from different tables or passages of the source.
Columns and labels:
physchem = conditions: 37 °C, thermodynamic from solid
[1] = pH 6.5
[2] = Hygroscopicity by DVS at 25° C.; format: physicochemical; conditions: for water uptake: DVS 25° C.
Method: Hygroscopicity of Form A and Form N was investigated by DVS at 25° C. […] Form A converted to Form K after the DVS test. Form K is a metastable hydrate. It reverted back to Form A after exposure to ambient condition.
Hygroscopicity of the free base Pattern A* and the urea cocrystal Form P were evaluated by DVS at 25° C.

Photostability study = conditions: 1.2 million lux-hrs at 25° C., open container
[3] = Variable humidity XRPD (VH-XRPD) experiments; format: physicochemical
Method: Based on DVS results, variable humidity XRPD was conducted for Pattern A at different humidity conditions, including 40%, 70%, 90%, 70%, 40%, 20%, 0%, 40% RH conditions.
Based on DVS results, variable humidity XRPD was conducted for Pattern N, at different humidity conditions, including 40%, 70%, 90%, 70%, 40%, 20%, 0%, 40% RH conditions.

[4] = Variable temperature XRPD (VT-XRPD) experiments; format: physicochemical
Method: To investigate form conversion behavior, variable temperature XRPD experiments were conducted for hydrate Pattern A, hydrate Pattern C, hydrate Pattern F and hetero-solvate Pattern L.
Based on DSC and TGA results, variable temperature XRPD was conducted for Pattern A, at different temperatures, including 25° C., 110° C. and 25° C.
Based on DSC and TGA results, variable temperature XRPD was conducted for Pattern B, at different temperatures, including 25° C., 80° C., 130° C. and 25° C. The sample after heating-cooling was placed at 25° C./75% RH condition for 1 day and investigated by XRPD.
Based on DSC and TGA results, variable temperature XRPD was conducted for Pattern C, at different temperatures, including 25° C., 110° C. and 25° C.
Based on DSC and TGA results, variable temperature XRPD was conducted for Pattern F at different temperatures, including 25° C., 110° C. and 25° C. The sample after heating-cooling was placed at 25° C./75% RH condition for 1 day and investigated by XRPD.
Based on DSC and TGA results, variable temperature XRPD was conducted for Pattern L, at different temperatures, including 25° C., 100° C., 140° C., 180° C. and 25° C. The sample after heating-cooling was placed at 25° C./92% RH condition for 24 h and investigated by XRPD.

[5] = Solubility study in aqueous media at 37° C.
[6] = Bulk stability study (1 week stress conditions; drying); conditions: one week
[7] = pH 4.5, 50 mM acetate buffer, 24 h

COc1cc(-c2cn(C)c(=O)c(C)c2C)cc(OC)c1CN1CC[C@H](N2CCN(c3ccc(N[C@H]4CCC(=O)NC4=O)cc3F)CC2)C(F)(F)C1 [Form P]
Solubility (physchem; pH 1, simulated gastric fluid): > 2000 µg/mL | Solubility (physchem; pH 1.8, simulated gastric fluid): > 2000 µg/mL | Solubility (physchem; pH 4.5, aqueous buffer): 100 to 300 µg/mL (≈ 141 to 422 µM) | Solubility (physchem; pH 5, fessif): 100 to 300 µg/mL (≈ 141 to 422 µM) | Solubility [1]: low solubility (close to LOQ) | water uptake ([2]; 95% RH): 3.1% | water uptake ([2]; below 90% RH): 1.6%

COc1cc(-c2cn(C)c(=O)c(C)c2C)cc(OC)c1CN1CC[C@H](N2CCN(c3ccc(N[C@H]4CCC(=O)NC4=O)cc3F)CC2)C(F)(F)C1 [Pattern A*]
degradation after exposure to light (Photostability study): ~1% | XRPD ([3]; 0% RH): Pattern J | XRPD ([3]; 0% RH hold 6 h): Pattern J | XRPD ([3]; 0% RH hold 2 days): Pattern J | XRPD ([3]; 20% RH): Pattern A | XRPD ([3]; 40% RH (after 90% RH, falling)): Pattern A | XRPD ([3]; 40% RH (first step)): Pattern A | XRPD ([3]; 40% RH (last step, after 0% RH)): Pattern A | XRPD ([3]; 70% RH (after 90% RH)): Metastable Pattern K | XRPD ([3]; 70% RH (humidity rising)): Metastable Pattern K | XRPD ([3]; 90% RH): Metastable Pattern K | XRPD ([4]; 25° C. (start)): Pattern A | XRPD ([4]; 25° C./50% RH hold 2 h): Pattern A | XRPD ([4]; Cool to 25° C.): Metastable Pattern J | XRPD ([4]; Heat to 110° C.): Metastable Pattern J | water uptake from 40% RH to 95% RH ([2]; DVS): 6.0% water uptake from | water uptake ([2]; 95% RH): about 6.0% | 1st desorp. (%) ([2]; DVS, 0% RH): 0.0% | 2nd sorp. (%) ([2]; DVS, 0% RH): 0.0% | 1st desorp. (%) ([2]; DVS, 10% RH): 1.1% | 2nd sorp. (%) ([2]; DVS, 10% RH): 1.0% | 1st desorp. (%) ([2]; DVS, 20% RH): 1.8% | 2nd sorp. (%) ([2]; DVS, 20% RH): 1.5% | 1st desorp. (%) ([2]; DVS, 30% RH): 4.5% | 2nd sorp. (%) ([2]; DVS, 30% RH): 2.1% | 1st desorp. (%) ([2]; DVS, 40% RH): 6.3% | 1st sorp. (%) ([2]; DVS, 40% RH): 4.6% | 2nd desorp. (%) ([2]; DVS, 40% RH): 6.6% | 2nd sorp. (%) ([2]; DVS, 40% RH): 3.6% | 1st desorp. (%) ([2]; DVS, 50% RH): 8.5% | 1st sorp. (%) ([2]; DVS, 50% RH): 5.2% | 2nd desorp. (%) ([2]; DVS, 50% RH): 8.5% | 2nd sorp. (%) ([2]; DVS, 50% RH): 5.8% | 1st desorp. (%) ([2]; DVS, 60% RH): 9.4% | 1st sorp. (%) ([2]; DVS, 60% RH): 6.9% | 2nd desorp. (%) ([2]; DVS, 60% RH): 9.4% | 2nd sorp. (%) ([2]; DVS, 60% RH): 7.7% | 1st desorp. (%) ([2]; DVS, 70% RH): 9.7% | 1st sorp. (%) ([2]; DVS, 70% RH): 9.1% | 2nd desorp. (%) ([2]; DVS, 70% RH): 9.7% | 2nd sorp. (%) ([2]; DVS, 70% RH): 9.3% | 1st desorp. (%) ([2]; DVS, 80% RH): 1.0% | 1st sorp. (%) ([2]; DVS, 80% RH): 9.8% | 2nd desorp. (%) ([2]; DVS, 80% RH): 10.0% | 2nd sorp. (%) ([2]; DVS, 80% RH): 9.8% | 1st desorp. (%) ([2]; DVS, 90% RH): 10.3% | 1st sorp. (%) ([2]; DVS, 90% RH): 10.3% | 2nd desorp. (%) ([2]; DVS, 90% RH): 10.3% | 2nd sorp. (%) ([2]; DVS, 90% RH): 10.2% | 1st desorp. (%) ([2]; DVS, 95% RH): 10.6% | 1st sorp. (%) ([2]; DVS, 95% RH): 10.6% | 2nd desorp. (%) ([2]; DVS, 95% RH): 10.5% | 2nd sorp. (%) ([2]; DVS, 95% RH): 10.5% | Solubility ([5]; FaSSIF-v1 (pH 6.5)): low solubility (close to LOQ) | pH ([5]; FaSSIF-v1, pH 6.5, 2 h): pH: 6.5 | Solubility ([5]; FaSSIF-v1, pH 6.5, 2 h, target 10 mg/5 mL, LOQ: 50 μg/mL): <LOQ | XRPD of residual solids ([5]; FaSSIF-v1, pH 6.5, 24 h): No form change | pH ([5]; FaSSIF-v1, pH 6.5, 24 h): pH: 6.5 | Solubility ([5]; FaSSIF-v1, pH 6.5, 24 h, target 10 mg/5 mL, LOQ: 50 μg/mL): 80 µg/mL (≈ 113 µM) | pH ([5]; FeSSIF-v1, pH 5.0, 2 h): pH: 5.0 | Solubility ([5]; FeSSIF-v1, pH 5.0, 2 h, target 10 mg/5 mL, LOQ: 50 μg/mL): 170 µg/mL (≈ 239 µM) | pH ([5]; FeSSIF-v1, pH 5.0, 24 h): pH: 5.0 | Solubility ([5]; FeSSIF-v1, pH 5.0, 24 h, target 10 mg/5 mL, LOQ: 50 μg/mL): 210 µg/mL (≈ 295 µM) | pH ([5]; SGF, pH 1.8, 2 h): pH: 2.4 | Solubility ([5]; SGF, pH 1.8, 2 h, target 10 mg/5 mL, LOQ: 50 μg/mL): >2000 µg/mL | pH ([5]; SGF, pH 1.8, 24 h): pH: 2.4 | Solubility ([5]; SGF, pH 1.8, 24 h, target 10 mg/5 mL, LOQ: 50 μg/mL): >2000 µg/mL | pH ([5]; pH 1.0 (0.1N HCl), 2 h): pH: 1.0 | Solubility ([5]; pH 1.0 (0.1N HCl), 2 h, target 10 mg/5 mL, LOQ: 50 μg/mL): >2000 µg/mL | pH ([5]; pH 1.0 (0.1N HCl), 24 h): pH: 1.0 | Solubility ([5]; pH 1.0 (0.1N HCl), 24 h, target 10 mg/5 mL, LOQ: 50 μg/mL): >2000 µg/mL | pH ([5]; pH 4.5, 50 mM acetate buffer, 2 h): pH: 4.5 | Solubility ([5]; pH 4.5, 50 mM acetate buffer, 2 h, target 10 mg/5 mL, LOQ: 50 μg/mL): 260 µg/mL (≈ 366 µM) | XRPD of residual solids [5, 7]: No form change | pH [5, 7]: pH: 4.5 | Solubility ([5]; pH 4.5, 50 mM acetate buffer, 24 h, target 10 mg/5 mL, LOQ: 50 μg/mL): 120 µg/mL (≈ 169 µM) | chemical stability ([6]; 25° C./92% RH open, 40° C./75% RH open, 60° C. tight container): good chemical stability | physical stability ([6]; 25° C./92% RH, open container): agglomeration | physical stability ([6]; 40° C./75% RH, open container): physically stable | physical stability ([6]; 60° C., tight container): crystallinity decrease
